Assay results published in PubChem BioAssay (NCI).
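Five concentrations, 48 hours, 96-well plates. GI50: concentration for 50% inhibition of growth. Definition used: TGI = concentration required for complete inhibition of growth.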

What was measured:
Assay in all cases: growth of human tumour cells (NCI), 48 h
786-0 renal = tested on: 786-0 renal
A549 NSCLC = tested on: A549 NSCLC
ACHN renal = tested on: ACHN renal
CAKI-1 renal = tested on: CAKI-1 renal
CCRF-CEM leukemia = tested on: CCRF-CEM leukemia
COLO 205 colon = tested on: COLO 205 colon
EKVX NSCLC = tested on: EKVX NSCLC
HCC-2998 colon = tested on: HCC-2998 colon
HCT-116 colon = tested on: HCT-116 colon
HCT-15 colon = tested on: HCT-15 colon
HL-60(TB) leukemia = tested on: HL-60(TB) leukemia
HOP-92 NSCLC = tested on: HOP-92 NSCLC
HT29 colon = tested on: HT29 colon
IGROV1 ovarian = tested on: IGROV1 ovarian
K-562 leukemia = tested on: K-562 leukemia
KM12 colon = tested on: KM12 colon
LOX IMVI melanoma = tested on: LOX IMVI melanoma
MALME-3M melanoma = tested on: MALME-3M melanoma
MCF7 breast = tested on: MCF7 breast
MDA-MB-231 breast = tested on: MDA-MB-231 breast
MDA-MB-435 = tested on: MDA-MB-435
MOLT-4 leukemia = tested on: MOLT-4 leukemia
NCI-H460 lung = tested on: NCI-H460 lung
NCI-H522 lung = tested on: NCI-H522 lung
NCI/ADR-RES ovarian = tested on: NCI/ADR-RES ovarian
OVCAR-3 ovarian = tested on: OVCAR-3 ovarian
OVCAR-4 ovarian = tested on: OVCAR-4 ovarian
OVCAR-5 ovarian = tested on: OVCAR-5 ovarian
OVCAR-8 ovarian = tested on: OVCAR-8 ovarian
PC-3 prostate = tested on: PC-3 prostate
RPMI-8226 leukemia = tested on: RPMI-8226 leukemia
SF-268 CNS = tested on: SF-268 CNS
SF-295 CNS = tested on: SF-295 CNS
SF-539 CNS = tested on: SF-539 CNS
SK-MEL-2 melanoma = tested on: SK-MEL-2 melanoma
SK-MEL-28 melanoma = tested on: SK-MEL-28 melanoma
SK-OV-3 ovarian = tested on: SK-OV-3 ovarian
SN12C renal = tested on: SN12C renal
SNB-19 CNS = tested on: SNB-19 CNS
SR leukemia = tested on: SR leukemia
SW-620 colon = tested on: SW-620 colon
T-47D breast = tested on: T-47D breast
U251 CNS = tested on: U251 CNS
UACC-257 melanoma = tested on: UACC-257 melanoma
UACC-62 melanoma = tested on: UACC-62 melanoma
UO-31 renal = tested on: UO-31 renal

`C=C1[C@@H](O)O[C@H]2[C@H]1C[C@H](OC(C)=O)[C@]13C(=O)O[C@H]4C[C@](C)(O)[C@H]([C@H]41)C31C=C(C)[C@]2(O)O1` was tested. Which GI50 (786-0 renal) did it give?
The GI50 was 22.4 µM.

And the TGI (786-0 renal)?
Its TGI is 49.1 µM.

And the GI50 (A549 NSCLC)?
Its GI50 is > 100 µM.

And the TGI (A549 NSCLC)?
Its TGI is > 100 µM.

What about the GI50 (ACHN renal) of the same molecule?
The GI50 was 49.8 µM.

What about the TGI (ACHN renal) of the same molecule?
The TGI was > 100 µM.

And the GI50 (CAKI-1 renal)?
The GI50 was 0.516 µM.

What about the TGI (CAKI-1 renal) of the same molecule?
The TGI was 34.6 µM.

What about the GI50 (CCRF-CEM leukemia) of the same molecule?
The GI50 was 18.9 µM.

And the TGI (CCRF-CEM leukemia)?
Its TGI is > 100 µM.

What about the GI50 (COLO 205 colon) of the same molecule?
The GI50 was 48.9 µM.

And the TGI (COLO 205 colon)?
The TGI was > 100 µM.

And the TGI (EKVX NSCLC)?
Its TGI is 0.0269 µM.

What about the GI50 (HCC-2998 colon) of the same molecule?
Its GI50 is 22.5 µM.

What about the TGI (HCC-2998 colon) of the same molecule?
The TGI was 76.2 µM.

What about the GI50 (HCT-116 colon) of the same molecule?
Its GI50 is 19.8 µM.

What about the TGI (HCT-116 colon) of the same molecule?
The TGI was 38.2 µM.

What about the GI50 (HCT-15 colon) of the same molecule?
Its GI50 is 49.2 µM.

What about the TGI (HCT-15 colon) of the same molecule?
Its TGI is > 100 µM.

What about the GI50 (HL-60(TB) leukemia) of the same molecule?
Its GI50 is 61.8 µM.

And the TGI (HL-60(TB) leukemia)?
The TGI was > 100 µM.

What about the GI50 (HOP-92 NSCLC) of the same molecule?
The GI50 was > 100 µM.

What about the TGI (HOP-92 NSCLC) of the same molecule?
Its TGI is > 100 µM.

What about the GI50 (HT29 colon) of the same molecule?
Its GI50 is 75.4 µM.

And the TGI (HT29 colon)?
Its TGI is > 100 µM.

What about the GI50 (IGROV1 ovarian) of the same molecule?
The GI50 was 18.8 µM.

And the TGI (IGROV1 ovarian)?
The TGI was 71.4 µM.

And the GI50 (K-562 leukemia)?
Its GI50 is 53.8 µM.

And the TGI (K-562 leukemia)?
Its TGI is > 100 µM.

And the GI50 (KM12 colon)?
Its GI50 is 36.8 µM.

And the TGI (KM12 colon)?
Its TGI is > 100 µM.

And the GI50 (LOX IMVI melanoma)?
The GI50 was 29.6 µM.

And the TGI (LOX IMVI melanoma)?
Its TGI is > 100 µM.

And the GI50 (MALME-3M melanoma)?
The GI50 was 16.3 µM.

And the TGI (MALME-3M melanoma)?
Its TGI is 46.1 µM.

What about the GI50 (MCF7 breast) of the same molecule?
The GI50 was 25.8 µM.

What about the TGI (MCF7 breast) of the same molecule?
Its TGI is 54.7 µM.

What about the GI50 (MDA-MB-231 breast) of the same molecule?
Its GI50 is 34.9 µM.

What about the TGI (MDA-MB-231 breast) of the same molecule?
Its TGI is > 100 µM.

What about the GI50 (MDA-MB-435) of the same molecule?
Its GI50 is 13.3 µM.

What about the TGI (MDA-MB-435) of the same molecule?
The TGI was > 100 µM.

What about the GI50 (MOLT-4 leukemia) of the same molecule?
Its GI50 is 80.6 µM.

What about the TGI (MOLT-4 leukemia) of the same molecule?
The TGI was > 100 µM.

What about the GI50 (NCI-H460 lung) of the same molecule?
The GI50 was 32.5 µM.

What about the TGI (NCI-H460 lung) of the same molecule?
Its TGI is 96.9 µM.

What about the GI50 (NCI-H522 lung) of the same molecule?
Its GI50 is 4.53 µM.

What about the TGI (NCI-H522 lung) of the same molecule?
The TGI was 21.4 µM.

What about the GI50 (NCI/ADR-RES ovarian) of the same molecule?
Its GI50 is 28 µM.

And the TGI (NCI/ADR-RES ovarian)?
The TGI was 80.8 µM.

What about the GI50 (OVCAR-3 ovarian) of the same molecule?
The GI50 was 7.43 µM.

What about the TGI (OVCAR-3 ovarian) of the same molecule?
Its TGI is 32.6 µM.

What about the GI50 (OVCAR-4 ovarian) of the same molecule?
The GI50 was > 100 µM.

What about the TGI (OVCAR-4 ovarian) of the same molecule?
Its TGI is > 100 µM.

And the GI50 (OVCAR-5 ovarian)?
Its GI50 is 21.7 µM.

And the TGI (OVCAR-5 ovarian)?
The TGI was 48 µM.

And the GI50 (OVCAR-8 ovarian)?
The GI50 was 22.7 µM.

What about the TGI (OVCAR-8 ovarian) of the same molecule?
Its TGI is 58.8 µM.

And the GI50 (PC-3 prostate)?
The GI50 was 53.3 µM.

And the TGI (PC-3 prostate)?
The TGI was > 100 µM.

And the GI50 (RPMI-8226 leukemia)?
The GI50 was 24.2 µM.

What about the TGI (RPMI-8226 leukemia) of the same molecule?
The TGI was > 100 µM.

What about the GI50 (SF-268 CNS) of the same molecule?
The GI50 was 34.5 µM.

What about the TGI (SF-268 CNS) of the same molecule?
Its TGI is > 100 µM.

And the GI50 (SF-295 CNS)?
The GI50 was 4.03 µM.

And the TGI (SF-295 CNS)?
Its TGI is > 100 µM.

What about the GI50 (SF-539 CNS) of the same molecule?
The GI50 was 21.1 µM.

And the TGI (SF-539 CNS)?
Its TGI is 52 µM.

And the GI50 (SK-MEL-2 melanoma)?
Its GI50 is 18.6 µM.

And the TGI (SK-MEL-2 melanoma)?
The TGI was 59.7 µM.

What about the GI50 (SK-MEL-28 melanoma) of the same molecule?
The GI50 was 61 µM.

What about the TGI (SK-MEL-28 melanoma) of the same molecule?
Its TGI is > 100 µM.

And the GI50 (SK-OV-3 ovarian)?
Its GI50 is > 100 µM.

And the TGI (SK-OV-3 ovarian)?
Its TGI is > 100 µM.

And the GI50 (SN12C renal)?
The GI50 was 26.6 µM.

And the TGI (SN12C renal)?
Its TGI is 95.2 µM.

And the GI50 (SNB-19 CNS)?
The GI50 was > 100 µM.

What about the TGI (SNB-19 CNS) of the same molecule?
Its TGI is > 100 µM.

What about the GI50 (SR leukemia) of the same molecule?
The GI50 was 40.9 µM.

What about the TGI (SR leukemia) of the same molecule?
Its TGI is > 100 µM.

And the GI50 (SW-620 colon)?
Its GI50 is 29.8 µM.

What about the TGI (SW-620 colon) of the same molecule?
The TGI was > 100 µM.

What about the GI50 (T-47D breast) of the same molecule?
The GI50 was > 100 µM.

What about the TGI (T-47D breast) of the same molecule?
The TGI was > 100 µM.

What about the GI50 (U251 CNS) of the same molecule?
Its GI50 is 24.2 µM.

What about the TGI (U251 CNS) of the same molecule?
Its TGI is 64.7 µM.

And the GI50 (UACC-257 melanoma)?
Its GI50 is 25.6 µM.

And the TGI (UACC-257 melanoma)?
The TGI was 87.2 µM.

What about the GI50 (UACC-62 melanoma) of the same molecule?
Its GI50 is 30.3 µM.

And the TGI (UACC-62 melanoma)?
The TGI was > 100 µM.

And the GI50 (UO-31 renal)?
The GI50 was 27.2 µM.

And the TGI (UO-31 renal)?
Its TGI is 74.1 µM.
